Source: ChEMBL document CHEMBL3272317, “Application of SCAP to drug design. 1. Prediction of octanol-water partition coefficients using solvent-dependent conformational analyses” (J Med Chem, 1976)

test: Octanol-water partition coefficient, log P of the compound

Compound | logP
CCCCCl [BUTYL CHLORIDE] | 2.39
OC1CCCCC1 [CYCLOHEXANOL] | 1.23
Nc1ccccc1 [ANILINE] | 0.9
CC(C)(C)CO | 1.36
CCC#N [PROPIONITRILE] | 0.16
CCCc1ccccc1 | 3.68
CCC(C)=O [BUTANONE] | 0.29
